Test results from patent publication US8124371B2, “Compositions and methods for destabilizing lysosomes to increase oncogenic or aberrant protein degradation” (priority 2003, dated 2012).
Where a SMILES comes first, the peptide text is derived from it. [ ]: non-standard residue; d: D form. The star is where a group is joined. Nle = CCCC[C@H](N)C(=O)O; Cbz = O=C(OCc1ccccc1)*; CH2F = FC*

What was measured:
HA-tagged PML/RARα = test: In vitro degradation assay with lysates of NB4-S1 cells; assay type: biochemical; conditions: for blocking of PML/RARα degradation by lysates of arsenic-treated cells: inhibitor added to in vitro degradation assay
Procedure: Cell lysates of NB4-S1 cells, either treated for 72 hours with arsenic (1 μM) or left untreated, were obtained using a mild-lysis buffer that supported lysosomal enzymatic activity. In vitro degradation assays were performed using these lysates and HA-tagged PML/RARα was used as a target for degradation.

[1] = test system: retinoic acid-sensitive NB4-S1 APL cells; test: Growth suppression, cell counts (Coulter counter); assay type: cell-based; conditions: for growth suppressive activity: agent alone, chloroquine ranked over retinoic acid-sensitive and -resistant cells
Procedure: Three independent experiments were conducted.
To identify other agents which destabilize lysosomes, APL cells were contacted with test agents and the ability of the test agent to induce cell death was evaluated.

APL NB4-S1 cells = test: Cell differentiation, nitroblue tetrazolium reduction assay; assay type: cell-based; conditions: 20 μM, 6 days
Procedure: (§1) Cell differentiation was evaluated using a nitroblue tetrazolium reduction assay, wherein the presence blue formazan deposits under light microscopy is indicative of differentiated cells. Further, apoptosis was evaluated using Hoechst staining of nuclear DNA wherein the DNA was characterized morphologically by nuclear condensation and fragmentation of chromosomes.

NB4-S1 APL cells [2] = test: Apoptosis, Hoechst staining of nuclear DNA; assay type: cell-based; conditions: 20 μM
Procedure: as §1
The percentage of apoptotic cells was determined. This experiment was performed independently three times and three random fields were selected to assess the percentage of apoptotic cells.

NB4-S1 cells = test: Lysosome destabilization, lysosome-specific targeting dye and confocal microscopy; assay type: cell-based; conditions: compared to untreated cells
Procedure: (§2) By way of illustration, arsenic was applied to APL, retinoic acid-sensitive NB4-S1 cells and found to rapidly (within 2 hours) destabilize lysosomes in these leukemic cells as compared to untreated cells in an assay using a lysosome-specific targeting dye and confocal microscopy. […] Conversely, cytochrome c (an activator of caspase-induced apoptosis) was not detected in the cytosol until 96 hours.

NB4-S1 APL cells [3] = test: Release of lysosomal proteins / cytochrome c into the cytosolic fraction, SDS-PAGE and immunoblot; assay type: cell-based; conditions: after 1 μM arsenic treatment
Procedure: as §2

[4] = test system: isolated lysosomes from NB4 APL cells; test: Degradation of isolated lysosomes in vitro
Source text: (§3) This arsenic-activated degradation program was also engaged by non-leukemic cells. […] Accordingly, this lysosome-dependent degradative pathway can be employed as a general therapeutic target for the destruction of oncogenic (e.g., PML/RARα) or aberrant (e.g., CFTR) proteins in the prevention and treatment of cancer or other diseases which are associated with said proteins. Further, lysosome destabilization can be used to identify other small molecule activators which, like arsenic, would have therapeutic activity via induced destabilization of lysosomes that would in turn eliminate oncogenic or other aberrant proteins by triggering their destruction.

[5] = test system: wild-type cystic fibrosis protein (CFTR); test: CFTR degradation by cell content of arsenic-exposed COS cells; assay type: biochemical; conditions: CFTR over-expressed in MDCK cells; cell content of COS exposed to arsenic
Source text: as §3

CCCC[C@@H](C=O)NC(=O)[C@H](CC(C)C)NC(=O)[C@H](CC(C)C)NC(C)=O [ALLN] (Ac-Leu-Leu-[Nle]-aldehyde)
blocking of PML/RARα degradation by lysates of arsenic-treated cells (HA-tagged PML/RARα): did not block PML/RARα degradation

CCCCCCCCCCCCC/C=C/[C@@H](O)[C@H](CO)NCCCCCCCC [N-octyl-D-erythro-sphingosine]
growth suppressive activity [1]: some growth suppressive activity

CN(C)CCCN1c2ccccc2CCc2ccccc21 [Imipramine]
growth suppressive activity [1]: some growth suppressive activity

CCN(CC)CCCC(C)Nc1ccnc2cc(Cl)ccc12 (centres unmarked) [Chloroquine, 7-chloro-4-(4-diethylamino-1-methylbutylamino) quinoline]
growth inhibitory effect in combination with retinoic acid ([1]; chloroquine 20 μM combined with retinoic acid 0.1 μM, FIG. 1A): additive growth inhibitory effect
induction of differentiation (APL NB4-S1 cells): does not induce differentiation
induction of apoptosis (NB4-S1 APL cells [2]): exposure time-dependent
% Apoptosis (NB4-S1 APL cells [2]; 24 hours): 16%
% Apoptosis (NB4-S1 APL cells [2]; 48 hours): 20%
% Apoptosis (NB4-S1 APL cells [2]; 72 hours): 30%

CC(NC(=O)C(NC(=O)OCc1ccccc1)C(C)C)C(=O)NC(CC(=O)O)C(=O)CF (stereo not drawn) [zVAD] (Cbz-Val-Ala-Asp-CH2F; configuration not given here)
blocking of PML/RARα degradation by lysates of arsenic-treated cells (HA-tagged PML/RARα): did not block PML/RARα degradation

[AsH3] [arsenic]
time to destabilize lysosomes (NB4-S1 cells): ≤ 2 h
cathepsin B detectable in the cytosolic fraction, earliest time (NB4-S1 APL cells [3]): 30 min
cytochrome c not detected in the cytosol until (NB4-S1 APL cells [3]): 96 h
lysosomal protein esterase detectable in the cytosolic fraction, earliest time (NB4-S1 APL cells [3]): 5 min
PML/RARα degradation by cell lysates of treated NB4-S1 cells (HA-tagged PML/RARα; cells treated 72 hours, 1 μM, versus untreated cell lysates): rapidly degraded
degradation of isolated lysosomes upon treatment [4]: exhibited degradation in vitro
CFTR degradation [5]: observed to be degraded
